Data published in patent publication US20130156762A1, “Mechanically-Activated Cation Channels” (The Scripps Research Institute, priority 2010, published 2013).
Values belong to the molecule of their own block, whether it stands above or below them.

Legend:
Piezo2 = molecular target: T1, Piezo2 (Mus musculus, UniProt Q8CD54); assay: Block of Piezo2-induced MA currents in Piezo2-expressing cells (whole-cell); type: cell-based; conditions: for Percent block of Piezo2-induced MA currents: 30 μM
T1 construct: expressed in transfected cells; host or cells: N2A (with Piezo1 siRNA) or HEK293T; A13: N2A
Method: (§1) Patch-clamp experiments were performed in standard whole-cell or cell attached recordings using an Axopatch 200B amplifier (Axon Instruments). Patch pipettes had resistance of 2-3 MΩ when filled with an internal solution consisting of (in mM) 133 CsCl, 10 HEPES, 5 EGTA, 1 CaCl2, 1 MgCl2, 4 MgATP, and 0.4 Na2GTP (pH adjusted to 7.3 with CsOH). The extracellular solution consisted of (in mM) 127-130 NaCl, 3 KCl, 1 MgCl2, 10 HEPES, 2.5 CaCl2, 10 glucose (pH adjusted to 7.3 with NaOH). NMDG solution consisted of (in mM) 150 NMDG, 10 HEPES (pH 7.5). For ion selectivity experiments, internal solution consisted of (in mM) 150 CsCl, 10 Hepes (pH 7.3 with CsOH), monovalent external solutions consisted of (in mM) 150 NaCl or KCl, 10 HEPES (pH 7.3 with NaOH or KOH) and divalent external solutions consisted of (in mM) 100 CaCl2 or MgCl2, 10 HEPES (pH 7.3 with CsOH). For cell attached recordings, pipette were filled with a solution consisting of (in mM) 130 NaCl, 5 KCl, 10 HEPES, 1 CaCl2, 1 MgCl2, 10 TEA-C1 (pH 7.3 with NaOH) and external solution used to zero the membrane potential consisted of (in mM) 140 KCl, 10 HEPES, 1 MgCl2, 10 glucose (pH 7.3 with KOH). All experiments were done at room temperature. Currents were sampled at 20 kHz and filtered at 2 kHz. Voltages were not corrected for a liquid junction potential excepted for ion selectivity experiments were LJP were calculated using Clampex 10.1 software (Axon Instruments). Leak currents before mechanical stimulations were subtracted off-line from the current traces. 10 mM ruthenium red stock solution was prepared in DMSO; 100 mM gadolinium stock solution, in water.
(§2) For whole-cell recordings mechanical stimulation was achieved using a fire-polished glass pipette (tip diameter 3-4 μm) positioned at an angle of 80° to the cell being recorded. Downward movement of the probe toward the cell was driven by a Clampex controlled piezo-electric crystal microstage (E625 LVPZT Controller/Amplifier; Physik Instrumente). […] Inward MA currents were recorded at a holding potential of −80 mV. […]

Piezo1 = molecular target: T2, Piezo1 (Mus musculus, UniProt E2JF22); assay: Block of Piezo1-induced MA currents in Piezo1-expressing cells (whole-cell); type: cell-based; conditions: for Percent block of Piezo1-induced MA current: 30 μM
T2 construct: expressed in transfected cells; HEK293T for immunocytochemistry
Method: as §1, §2

N2A cells = assay: Whole-cell mechanical stimulation (piezo-driven glass probe), MA currents in N2A cells; type: cell-based, mouse
Method: Cell culture and transient transfection. Neuro2A cells were grown in Eagle's Minimum Essential Medium containing 4.5 mg.ml^−1 glucose, 10% fetal bovine serum, 50 units.ml^−1 penicillin and 50 μg.ml^−1 streptomycin. C2C12 or Human Embryonic Kidney 293T (HEK293T) cells were grown in Dulbecco's Modified Eagle Medium containing 4.5 mg.ml^−1 glucose, 10% fetal bovine serum, 50 units.ml^−1 penicillin and 50 μg.ml^−1 streptomycin. Cells were plated onto 35 mm dishes or 12-mm round glass coverslips placed in 24-well plates and transfected using lipofectamine 2000 (Invitrogen) according to the manufacturer's instructions. For Piezo1 overexpression experiment, 500 to 1000 ng.ml^−1 of Piezo1-IRES-GFP or vector only were transfected, and cells were recorded 12-48 hours later. For Piezo2 overexpression experiments, 600 to 1000 ng.ml^−1 of mPiezo2 or vector were co-transfected with 300 ng.ml^−1 GFP to identify transfected cells and cells were recorded 12-48 hours later. […]
(§3) Patch-clamp experiments were performed in standard whole-cell or cell attached recordings using an Axopatch 200B amplifier (Axon Instruments). […] Voltages were not corrected for a liquid junction potential excepted for ion selectivity experiments were LJP were calculated using Clampex 10.1 software (Axon Instruments). […]

C2C12 cells = assay: Whole-cell mechanical stimulation, MA currents in C2C12 cells; type: cell-based, mouse; conditions: NMDG-chloride external solution, data not shown
Method: Cell culture and transient transfection. Neuro2A cells were grown in Eagle's Minimum Essential Medium containing 4.5 mg.ml^−1 glucose, 10% fetal bovine serum, 50 units.ml^−1 penicillin and 50 μg.ml^−1 streptomycin. C2C12 or Human Embryonic Kidney 293T (HEK293T) cells were grown in Dulbecco's Modified Eagle Medium containing 4.5 mg.ml^−1 glucose, 10% fetal bovine serum, 50 units.ml^−1 penicillin and 50 μg.ml^−1 streptomycin. Cells were plated onto 35 mm dishes or 12-mm round glass coverslips placed in 24-well plates and transfected using lipofectamine 2000 (Invitrogen) according to the manufacturer's instructions. For Piezo1 overexpression experiment, 500 to 1000 ng.ml^−1 of Piezo1-IRES-GFP or vector only were transfected, and cells were recorded 12-48 hours later. For Piezo2 overexpression experiments, 600 to 1000 ng.ml^−1 of mPiezo2 or vector were co-transfected with 300 ng.ml^−1 GFP to identify transfected cells and cells were recorded 12-48 hours later.
as §3

T1 sequence (Q8CD54 whole entry): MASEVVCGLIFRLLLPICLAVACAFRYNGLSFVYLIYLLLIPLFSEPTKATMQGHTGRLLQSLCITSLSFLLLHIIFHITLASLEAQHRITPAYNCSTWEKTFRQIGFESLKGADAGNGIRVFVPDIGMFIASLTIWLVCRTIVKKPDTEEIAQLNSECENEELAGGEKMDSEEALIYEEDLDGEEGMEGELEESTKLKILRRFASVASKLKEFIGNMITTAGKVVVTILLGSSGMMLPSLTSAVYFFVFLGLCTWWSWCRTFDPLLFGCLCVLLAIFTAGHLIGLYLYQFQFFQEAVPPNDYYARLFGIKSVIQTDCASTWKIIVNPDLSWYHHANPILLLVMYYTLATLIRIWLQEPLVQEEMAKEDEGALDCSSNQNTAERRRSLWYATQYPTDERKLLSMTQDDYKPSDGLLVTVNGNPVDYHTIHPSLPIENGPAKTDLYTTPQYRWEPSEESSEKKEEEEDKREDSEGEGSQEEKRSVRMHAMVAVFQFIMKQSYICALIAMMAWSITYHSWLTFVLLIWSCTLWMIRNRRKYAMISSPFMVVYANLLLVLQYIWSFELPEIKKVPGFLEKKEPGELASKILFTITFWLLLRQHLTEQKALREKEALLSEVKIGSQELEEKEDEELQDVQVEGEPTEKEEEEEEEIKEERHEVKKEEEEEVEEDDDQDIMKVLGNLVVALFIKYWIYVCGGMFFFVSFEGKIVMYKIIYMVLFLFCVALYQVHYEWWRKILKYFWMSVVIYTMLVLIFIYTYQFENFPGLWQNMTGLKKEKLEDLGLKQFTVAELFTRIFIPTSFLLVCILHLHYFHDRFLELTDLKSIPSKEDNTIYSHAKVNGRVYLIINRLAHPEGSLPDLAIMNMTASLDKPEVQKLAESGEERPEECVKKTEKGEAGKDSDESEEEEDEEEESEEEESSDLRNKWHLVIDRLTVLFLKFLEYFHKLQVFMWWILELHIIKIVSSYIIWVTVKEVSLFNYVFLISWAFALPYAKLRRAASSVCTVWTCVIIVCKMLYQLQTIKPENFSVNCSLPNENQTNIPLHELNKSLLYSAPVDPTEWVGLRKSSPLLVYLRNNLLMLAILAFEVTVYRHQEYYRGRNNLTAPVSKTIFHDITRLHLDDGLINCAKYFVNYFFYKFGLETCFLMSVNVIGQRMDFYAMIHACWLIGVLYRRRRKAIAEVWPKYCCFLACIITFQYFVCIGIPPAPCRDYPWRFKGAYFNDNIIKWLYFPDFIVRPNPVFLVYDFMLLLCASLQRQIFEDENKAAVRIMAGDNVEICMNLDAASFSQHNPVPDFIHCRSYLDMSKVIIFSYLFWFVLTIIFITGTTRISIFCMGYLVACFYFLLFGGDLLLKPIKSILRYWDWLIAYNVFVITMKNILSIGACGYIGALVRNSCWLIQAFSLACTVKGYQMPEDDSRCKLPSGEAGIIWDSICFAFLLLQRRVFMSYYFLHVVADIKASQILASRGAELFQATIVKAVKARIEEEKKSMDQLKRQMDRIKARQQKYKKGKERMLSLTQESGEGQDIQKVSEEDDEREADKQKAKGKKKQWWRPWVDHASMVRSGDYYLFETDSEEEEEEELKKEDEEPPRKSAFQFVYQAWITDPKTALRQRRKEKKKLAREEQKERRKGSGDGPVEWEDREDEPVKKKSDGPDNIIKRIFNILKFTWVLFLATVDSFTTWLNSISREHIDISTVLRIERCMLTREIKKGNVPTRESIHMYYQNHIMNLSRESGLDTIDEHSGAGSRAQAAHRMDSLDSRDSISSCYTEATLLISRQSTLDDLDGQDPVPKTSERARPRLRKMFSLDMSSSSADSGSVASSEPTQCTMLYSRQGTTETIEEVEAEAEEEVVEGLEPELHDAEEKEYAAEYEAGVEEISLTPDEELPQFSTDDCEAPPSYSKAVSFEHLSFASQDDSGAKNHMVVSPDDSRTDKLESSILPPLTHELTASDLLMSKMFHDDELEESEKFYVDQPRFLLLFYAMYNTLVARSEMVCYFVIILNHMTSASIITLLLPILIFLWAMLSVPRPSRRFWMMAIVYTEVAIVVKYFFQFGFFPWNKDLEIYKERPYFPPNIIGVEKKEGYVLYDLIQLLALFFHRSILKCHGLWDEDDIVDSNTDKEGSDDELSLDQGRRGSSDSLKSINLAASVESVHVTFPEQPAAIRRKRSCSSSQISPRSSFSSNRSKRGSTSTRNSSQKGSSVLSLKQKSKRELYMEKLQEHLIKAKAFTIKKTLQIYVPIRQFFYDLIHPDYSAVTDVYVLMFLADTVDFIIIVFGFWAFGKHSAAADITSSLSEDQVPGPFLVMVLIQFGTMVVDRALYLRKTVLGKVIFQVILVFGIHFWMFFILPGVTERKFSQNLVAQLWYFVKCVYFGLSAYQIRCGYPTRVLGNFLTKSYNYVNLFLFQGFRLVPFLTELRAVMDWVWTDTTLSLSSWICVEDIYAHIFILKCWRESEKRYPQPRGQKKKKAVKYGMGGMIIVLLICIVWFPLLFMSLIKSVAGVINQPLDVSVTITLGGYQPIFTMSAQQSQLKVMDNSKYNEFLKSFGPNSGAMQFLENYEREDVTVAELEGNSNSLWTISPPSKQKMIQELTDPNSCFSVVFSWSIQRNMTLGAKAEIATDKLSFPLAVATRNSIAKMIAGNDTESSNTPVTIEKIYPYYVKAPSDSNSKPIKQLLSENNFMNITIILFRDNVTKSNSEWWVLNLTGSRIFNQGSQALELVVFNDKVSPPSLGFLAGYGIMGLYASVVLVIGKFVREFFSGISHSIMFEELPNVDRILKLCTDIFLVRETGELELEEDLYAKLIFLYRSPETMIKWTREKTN

SMILES: [Gd] [gadolinium]
- Percent block of Piezo2-induced MA currents (Piezo2): 85.0±3.7%
- Percent block of Piezo1-induced MA current (Piezo1): 84.3±3.8%

SMILES: O=C(O)CN(CCOCCOCCN(CC(=O)O)CC(=O)O)CC(=O)O [EGTA]
- Effect on MA currents (N2A cells; extracellular perfusion of divalent-free 5 mM EGTA solution for 30-60 min): did not suppress

- Percent block of Piezo2-induced MA currents (Piezo2): 79.2±4.2%
- Percent block of Piezo1-induced MA current (Piezo1): 74.6±2.5%
SMILES: N.N.N.N.N.N.N.N.N.N.N.N.N.N.[Cl-].[Cl-].[Cl-].[Cl-].[Cl-].[Cl-].[O-2].[O-2].[Ru+3].[Ru+3].[Ru+4] [ruthenium red]

- Effect on Piezo2-induced currents (Piezo2; perfusion with NMDG-Cl solution): suppressed
- Effect on inward Piezo1-induced MA currents (Piezo1; NMDG substituted in extracellular bathing solution (150 mM NMDG-Cl)): suppressed
SMILES: CNC[C@H](O)[C@@H](O)[C@H](O)[C@H](O)CO [NMDG]
- Effect on inward endogenous MA currents (C2C12 cells): suppressed
- Effect on inward endogenous MA currents (N2A cells; NMDG-chloride external solution, data not shown): suppressed
